# From patent US20150105252A1, “SUBSTITUTED PYRAZOLES AS HERBICIDES” (E I DU PONT DE NEMOURS AND COMPANY, priority 2013, published 2015)
# Tests used:
# [1] = test system: foxtail, giant; assay: Test A postemergence; assay type: in vivo, Setaria faberii
# Method in brief: (§1)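 Ratings express plant response from 0 (no effect) to 100 (complete control), judged visually against untreated controls after approximately 10 days in the greenhouse. Preemergence applications were made as directed soil sprays onto seeded loam–sand mix, and postemergence applications onto 2–10 cm plants at one- to two-leaf stage.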
# [2] = test system: crabgrass, large; assay: Test A preemergence; assay type: in vivo, Digitaria sanguinalis; conditions: 0 to 100 scale
# Method in brief: as §1
# [3] = test system: morningglory; assay: Test A postemergence; assay type: in vivo, Ipomoea spp.
# Method in brief: as §1
# [4] = test system: barnyardgrass; assay: Test C flooded paddy test; assay type: in vivo, Echinochloa crus-galli; conditions: Flood
# Method in brief: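 Pots were flooded to 3 cm above the soil surface at treatment, compound applied directly to the paddy water, and that depth held throughout. Plants were kept in a greenhouse for 13 to 15 days, then visually rated against untreated controls.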
# [5] = test system: velvetleaf; assay: Test A preemergence; assay type: in vivo, Abutilon theophrasti; conditions: 0 to 100 scale
# Method in brief: as §1
# [6] = test system: wheat; assay: Test A postemergence; assay type: in vivo, Triticum aestivum
# Method in brief: as §1
# [7] = test system: pigweed; assay: Test A postemergence; assay type: in vivo, Amaranthus retroflexus
# Method in brief: as §1
# [8] = test system: barnyardgrass; assay: Test A preemergence; assay type: in vivo, Echinochloa crus-galli; conditions: 0 to 100 scale
# Method in brief: as §1
# [9] = test system: corn; assay: Test A postemergence; assay type: in vivo, Zea mays
# Method in brief: as §1
# [10] = test system: morningglory; assay: Test A preemergence; assay type: in vivo, Ipomoea spp.; conditions: 0 to 100 scale
# Method in brief: as §1
# [11] = test system: ducksalad; assay: Test C flooded paddy test; assay type: in vivo, Heteranthera limosa; conditions: Flood
# Text: (§2) At time of treatment, test pots were flooded to 3 cm above the soil surface, treated by application of test compounds directly to the paddy water, and then maintained at that water depth for the duration of the test. Treated plants and controls were maintained in a greenhouse for 13 to 15 days, after which time all species were compared to controls and visually evaluated. […] A dash (-) response means no test result.
# [12] = test system: rice; assay: Test C flooded paddy test; assay type: in vivo, Oryza sativa; conditions: Flood
# Text: as §2
# [13] = test system: pigweed; assay: Test A preemergence; assay type: in vivo, Amaranthus retroflexus; conditions: 0 to 100 scale
# Method in brief: as §1
# [14] = test system: corn; assay: Test A preemergence; assay type: in vivo, Zea mays; conditions: 0 to 100 scale
# Method in brief: as §1
# [15] = test system: wheat; assay: Test A preemergence; assay type: in vivo, Triticum aestivum; conditions: preemergence
# Method in brief: as §1
# [16] = test system: velvetleaf; assay: Test A postemergence; assay type: in vivo, Abutilon theophrasti
# Method in brief: as §1
# [17] = test system: sedge, umbrella; assay: Test C flooded paddy test; assay type: in vivo, Cyperus difformis; conditions: Flood
# Text: as §2
# [18] = test system: foxtail, giant; assay: Test A preemergence; assay type: in vivo, Setaria faberii; conditions: 0 to 100 scale
# Method in brief: as §1
# [19] = test system: crabgrass, large; assay: Test A postemergence; assay type: in vivo, Digitaria sanguinalis
# Method in brief: as §1
# [20] = test system: barnyardgrass; assay: Test A postemergence; assay type: in vivo, Echinochloa crus-galli; conditions: Postemergence
# Method in brief: as §1
# [21] = Postemergence, 500 g ai/ha, visual rating after approx. 10 days, 0 to 100 scale (0 no effect, 100 complete control)
# [22] = postemergence, 125 g ai/ha, about 10 days, visual rating on 0 to 100 scale (0 no effect, 100 complete control)
# [23] = Preemergence, 500 g ai/ha, 0 no effect, 100 complete control
# [24] = preemergence, 125 g ai/ha, visual injury, approx. 10 days
# [25] = 62 g ai/ha, scale 0 to 100 (0 no effect, 100 complete control)
# [26] = 125 g ai/ha, visual injury, 0 to 100 scale, approx. 10 days
# [27] = 500 g ai/ha, visual injury after approx. 10 days, 0 to 100 scale (0 no effect, 100 complete control)
# [28] = 125 g ai/ha, 0 to 100 scale, 0 no effect, 100 complete control
# [29] = 500 g ai/ha, visual rating after approx. 10 days, 0 to 100 scale (0 no effect, 100 complete control)
# [30] = 31 g ai/ha, scale 0 to 100 (0 no effect, 100 complete control)
structure (smiles),measurement,setting,value
CCc1cc(C(=O)NOC(C)(C)CC)nn1Cc1cccc(OC(F)(F)F)c1 [Compound 71],"Foxtail, Giant plant response rating",[1]; [21],70
same,"Foxtail, Giant plant response rating",[1]; [22],40
same,"Crabgrass, Large plant response rating",[2]; [23],100
same,"Crabgrass, Large plant response rating",[2]; [24],90
same,Morningglory plant response rating,[3]; [21],40
same,Morningglory plant response rating,[3]; [22],40
same,"Plant response rating, Barnyardgrass",[4]; [25],0
same,"Plant response rating, Barnyardgrass","[4]; 125 g ai/ha, scale 0 to 100",20
same,"Plant response rating, Barnyardgrass","[4]; 250 g ai/ha, scale 0 to 100",40
same,Velvetleaf plant response rating,[5]; [23],40
same,Velvetleaf plant response rating,[5]; [24],30
same,Wheat plant response rating,[6]; [21],50
same,Wheat plant response rating,[6]; [22],30
same,Pigweed plant response rating,[7]; [21],80
same,Pigweed plant response rating,[7]; [22],40
same,Barnyardgrass plant response rating,[8]; [23],80
same,Barnyardgrass plant response rating,[8]; [24],60
same,Corn plant response rating,[9]; [21],50
same,Corn plant response rating,[9]; [22],30
same,Morningglory plant response rating,[10]; [23],50
same,Morningglory plant response rating,[10]; [24],20
same,"Plant response rating, Ducksalad",[11]; [25],0
same,"Plant response rating, Ducksalad","[11]; 125 g ai/ha, scale 0 to 100",0
same,"Plant response rating, Ducksalad","[11]; 250 g ai/ha, scale 0 to 100",0
same,"Plant response rating, Rice",[12]; [25],0
same,"Plant response rating, Rice","[12]; 125 g ai/ha, scale 0 to 100",30
same,"Plant response rating, Rice","[12]; 250 g ai/ha, scale 0 to 100",45
same,Pigweed plant response rating,[13]; [23],100
same,Pigweed plant response rating,[13]; [24],80
same,Corn plant response rating,[14]; [23],10
same,Corn plant response rating,[14]; [24],0
same,Wheat plant response rating,[15]; [26],0
same,Wheat plant response rating,[15]; [27],70
same,Velvetleaf plant response rating,[16]; [21],100
same,Velvetleaf plant response rating,[16]; [22],50
same,"Plant response rating, Sedge, Umbrella",[17]; [25],70
same,"Plant response rating, Sedge, Umbrella","[17]; 125 g ai/ha, scale 0 to 100",75
same,"Plant response rating, Sedge, Umbrella","[17]; 250 g ai/ha, scale 0 to 100",85
same,"Foxtail, Giant plant response rating",[18]; [23],100
same,"Foxtail, Giant plant response rating",[18]; [24],80
same,"Crabgrass, Large plant response rating",[19]; [21],80
same,"Crabgrass, Large plant response rating",[19]; [22],40
same,Barnyardgrass plant response rating,[20]; [28],30
same,Barnyardgrass plant response rating,[20]; [29],70
CCONC(=O)c1cc(C)n(Cc2cccc(OC(F)(F)F)c2)n1 [Compound 73],"Foxtail, Giant plant response rating",[1]; [21],70
same,"Foxtail, Giant plant response rating",[1]; [22],40
same,"Crabgrass, Large plant response rating",[2]; [23],50
same,"Crabgrass, Large plant response rating",[2]; [24],30
same,Morningglory plant response rating,[3]; [21],40
same,Morningglory plant response rating,[3]; [22],30
same,"Plant response rating, Barnyardgrass",[4]; [30],0
same,"Plant response rating, Barnyardgrass",[4]; [25],0
same,"Plant response rating, Barnyardgrass","[4]; 125 g ai/ha, scale 0 to 100",0
same,"Plant response rating, Barnyardgrass","[4]; 250 g ai/ha, scale 0 to 100",0
same,Velvetleaf plant response rating,[5]; [23],60
same,Velvetleaf plant response rating,[5]; [24],10
same,Wheat plant response rating,[6]; [21],40
same,Wheat plant response rating,[6]; [22],0
same,Pigweed plant response rating,[7]; [21],90
same,Pigweed plant response rating,[7]; [22],70
same,Barnyardgrass plant response rating,[8]; [23],60
same,Barnyardgrass plant response rating,[8]; [24],50
same,Corn plant response rating,[9]; [21],80
same,Corn plant response rating,[9]; [22],40
same,Morningglory plant response rating,[10]; [23],30
same,Morningglory plant response rating,[10]; [24],10
same,"Plant response rating, Ducksalad",[11]; [30],0
same,"Plant response rating, Ducksalad",[11]; [25],20
same,"Plant response rating, Ducksalad","[11]; 125 g ai/ha, scale 0 to 100",45
same,"Plant response rating, Ducksalad","[11]; 250 g ai/ha, scale 0 to 100",55
same,"Plant response rating, Rice",[12]; [30],0
same,"Plant response rating, Rice",[12]; [25],0
same,"Plant response rating, Rice","[12]; 125 g ai/ha, scale 0 to 100",0
same,"Plant response rating, Rice","[12]; 250 g ai/ha, scale 0 to 100",0
same,Pigweed plant response rating,[13]; [23],100
same,Pigweed plant response rating,[13]; [24],90
same,Corn plant response rating,[14]; [23],50
same,Corn plant response rating,[14]; [24],30
same,Wheat plant response rating,[15]; [26],0
same,Wheat plant response rating,[15]; [27],80
same,Velvetleaf plant response rating,[16]; [21],80
same,Velvetleaf plant response rating,[16]; [22],30
same,"Plant response rating, Sedge, Umbrella",[17]; [30],0
same,"Plant response rating, Sedge, Umbrella",[17]; [25],0
same,"Plant response rating, Sedge, Umbrella","[17]; 125 g ai/ha, scale 0 to 100",0
same,"Plant response rating, Sedge, Umbrella","[17]; 250 g ai/ha, scale 0 to 100",30
same,"Foxtail, Giant plant response rating",[18]; [23],60
same,"Foxtail, Giant plant response rating",[18]; [24],30
same,"Crabgrass, Large plant response rating",[19]; [21],60
same,"Crabgrass, Large plant response rating",[19]; [22],40
same,Barnyardgrass plant response rating,[20]; [28],40
same,Barnyardgrass plant response rating,[20]; [29],70
